Data: patent US20230295162A1 (EÖTVÖS LORÁND TUDOMÁNYEGYETEM, priority 2020, published 2023)
Where two headings read alike, the source gives them in different places.

What was measured:
[1] = system: PANC-1 (human pancreatic carcinoma) cells; test: Impedance-based viability assay (xCELLigence SP), long treatment; assay type: cell-based; details: 72 h, read-out: cytotoxicity expressed in IC50, PANC-1
Excerpt: (Gibco®/Invitrogen Corporation, New York, NY, USA).
Data obtained from each experiment represent mathematical averages.

[2] = system: EBC-1 lung cancer cell line; test: High-throughput screening, CellTiter-Glo cell viability assay at 100 nM; assay type: cell-based, human; details: compounds at 100 nM, 72 h, read-out: cytotoxicity expressed in IC50, EBC-1 (results of High throughput screening)
Experimental: (§1) EBC-1 (obtained from JRCB, https://cellbank.nibiohn.go.jp/english/) and H2228 (obtained from ATCC https://www.lgcstandards-atcc.org/) cell lines were maintained according to the instructions provided by JRCB and ATCC in a 5% CO2 humidified incubator maintained at 37° C. temperature. Effect of compounds on cell viability was measured via CellTiter-Glo® luminescent cell viability assay (Promega, Madison, WI, USA). Cells were plated at 1000 cells/well onto a flat-bottomed, white 96 well plate (BRANDplates, cat. no.: 781965). After 24 h, cells were treated for 72 h with the compounds at 100 nM concentration. After the treatment, medium was removed and CellTiter-Glo® reagent was added. Untreated cells were used as control. The luminescence signal was recorded using a microplate reader (BioTek Synergy 2 Multi-Mode Reader, BioTek, Winooski, VT, USA). Cell viability data (% of untreated control cells) was evaluated with Microsoft Excel.

[3] = system: H2228 lung cancer cell line; test: as above; assay type: cell-based, human; details: compounds at 100 nM, 72 h, read-out: cytotoxicity expressed in IC50, H2228 (results of High throughput screening)
Experimental: as §1

[4] = system: COLO-205 (human colorectal adenocarcinoma) cells; test: Colorimetric alamarBlue assay, long treatment; details: COLO 205, 72 h, read-out: cytotoxicity expressed in IC50, COLO-205
[5] = system: A2058 (human metastatic melanoma) cells; test: Colorimetric alamarBlue assay, long treatment; details: read-out: cytotoxicity expressed in IC50, A-2058

Molecule | IC50 [1] [µM] | IC50 ([2]; Homo sapiens, EBC-1, HTS) [µM] | IC50 ([3]; Homo sapiens, NCI-H2228, HTS) [µM] | IC50 [4] [µM] | IC50 ([5]; Homo sapiens, A2058, 72 h) [µM] | IC50 ([2]; HTS) [µM] | IC50 ([3]; HTS) [µM] | IC50 ([5]; alamarBlue, 72 h) [µM]
O=C1C2=C(CCN(Cc3ccccc3)C2)N2CCN=C2N1Cc1ccc([N+](=O)[O-])cc1F [I/48] | 6.16 | > 0.1 | > 0.1 | 25 | 0.5 |  |  | 
NCc1cccc(CN2CCC3=C(C2)C(=O)N(Cc2ccc(I)cc2)C2=NCCN23)c1 [I/59] | 0.66 | > 0.1 | > 0.1 |  |  |  |  | 
O=C1C2=C(CCN(Cc3ccccc3)C2)N2CCN=C2N1Cc1ccc(F)c(F)c1F [I/29] | 0.66 |  |  | > 10 | > 10 |  |  | 
Nc1ccc(CN2CCC3=C(C2)C(=O)N(Cc2ccc(I)cc2)C2=NCCN23)cc1 [I/87] | 16 | > 0.1 | > 0.1 |  |  |  |  | 
O=C1C2=C(CCN(Cc3ccccc3)C2)N2CCN=C2N1Cc1ccccc1F [I/2, reference compound] | 4.18 | > 0.1 | > 0.1 | 9.97 | 2.95 |  |  | 
COc1cc(CN2C(=O)C3=C(CCN(Cc4ccc(N)cc4)C3)N3CCN=C23)cc(OC)c1OC [I/89] | 25 | > 0.1 | > 0.1 |  |  |  |  | 
Nc1cccc(CN2C(=O)C3=C(CCN(Cc4ccccc4)C3)N3CCN=C23)c1 [I/75] | 6.1 | > 0.1 | > 0.1 |  | 25 |  |  | 
[N-]=[N+]=Nc1cccc(CN2CCC3=C(C2)C(=O)N(Cc2ccc(C(F)(F)F)c(F)c2)C2=NCCN23)c1 [I/112] | 0.1 | < 0.1 | < 0.1 |  | 25 |  |  | 
[N-]=[N+]=Nc1cccc(CN2CCC3=C(C2)C(=O)N(Cc2ccc(I)cc2)C2=NCCN23)c1 [I/113] | 0.25 | < 0.1 | < 0.1 |  | 0.25 |  |  | 
7-Benzyl-4-(4-(4-ferrocenyl-1H-1,2,3-triazol-1-yl)benzyl)-2,4,6,7,8,9-hexahydroimidazo[1,2-a]pyrido[3,4-e]pyrimidin-5(1H)-one [I/121] |  |  |  |  |  | > 0.1 | > 0.1 | 2.5
O=C1C2=C(CCN(Cc3ccccc3)C2)N2CCN=C2N1Cc1ccccc1I [I/11] | > 10 | > 0.1 | > 0.1 | > 10 | > 10 |  |  | 
Cc1ccccc1CN1C(=O)C2=C(CCN(Cc3cccc(N=[N+]=[N-])c3)C2)N2CCN=C12 [I/103] | 0.27 | > 0.1 | > 0.1 |  | 25 |  |  | 
Nc1ccc(CN2CCC3=C(C2)C(=O)N(Cc2ccc(F)cc2)C2=NCCN23)cc1 [I/86] | 25 | > 0.1 | > 0.1 |  |  |  |  | 
Cc1ccccc1CN1C(=O)C2=C(CCN(Cc3ccc(C(F)(F)F)c(F)c3)C2)N2CCN=C12 [I/43] | > 10 | > 0.1 | > 0.1 | > 10 | > 10 |  |  | 
Nc1ccc(CN2C(=O)C3=C(CCN(Cc4cccc(F)c4)C3)N3CCN=C23)cc1 [I/84] | 23 | > 0.1 | > 0.1 |  |  |  |  | 
Cc1ccccc1CN1C(=O)C2=C(CCN(CCc3cccc(F)c3)C2)N2CCN=C12 [I/45] | > 10 |  |  | > 10 | > 10 |  |  | 
Cc1ccccc1CN1C(=O)C2=C(CCN(Cc3ccc(F)c(F)c3F)C2)N2CCN=C12 [I/10] | > 10 |  |  | > 10 | > 10 |  |  | 
O=C1C2=C(CCN(Cc3ccccc3F)C2)N2CCN=C2N1Cc1ccc(I)cc1 [I/54] | 1.8 |  |  | 2 |  |  |  | 
NCc1cccc(CN2C(=O)C3=C(CCN(Cc4ccc(C(F)(F)F)cc4)C3)N3CCN=C23)c1 [I/68] | > 10 | > 0.1 | > 0.1 | > 10 | > 10 |  |  | 
Nc1ccc(CN2CCC3=C(C2)C(=O)N(Cc2ccc(C(F)(F)F)cc2)C2=NCCN23)cc1 [I/81] | 21 | > 0.1 | > 0.1 |  |  |  |  | 
[N-]=[N+]=Nc1ccc(CN2C(=O)C3=C(CCN(Cc4ccccc4)C3)N3CCN=C23)cc1 [I/104] | 0.5 |  |  | 0.25 | 2.5 |  |  | 
NCc1cccc(CN2C(=O)C3=C(CCN(Cc4ccc(C(F)(F)F)c(F)c4)C3)N3CCN=C23)c1 [I/73] | > 10 |  |  | > 10 | > 10 |  |  | 
O=C1C2=C(CCN(Cc3ccccc3)C2)N2CCN=C2N1CCc1cccc(F)c1 [I/44] | > 10 |  |  | > 10 | > 10 |  |  | 
Cc1ccccc1CN1C(=O)C2=C(CCN(Cc3cccc(F)c3)C2)N2CCN=C12 [I/53] | 2 | > 0.1 | > 0.1 | 2 |  |  |  | 
O=C1C2=C(CCN(Cc3ccc(F)cc3)C2)N2CCN=C2N1Cc1ccc(I)cc1 [I/55] | 0.76 | > 0.1 | > 0.1 | 1 |  |  |  | 
